In ChEMBL document CHEMBL3112479, “Synthesis and evaluation of the antimicrobial activities of 3-((5-phenyl-1,3,4-oxadiazol-2-yl)methyl)-2-thioxothiazolidin-4-one derivatives” (2014):

Key:
Staphylococcus aureus [1] = test: Antimicrobial activity against quinolone-resistant Staphylococcus aureus clinical isolate 3519 after 20 hrs by two-fold serial dilution technique; assay type: functional; conditions: isolate 3519, 20 h
Staphylococcus aureus [2] = test: Antimicrobial activity against quinolone-resistant Staphylococcus aureus clinical isolate 3505 after 20 hrs by two-fold serial dilution technique; assay type: functional; conditions: isolate 3505, 20 h
Staphylococcus aureus [3] = test: Antimicrobial activity against methicillin-resistant Staphylococcus aureus clinical isolate 3506 after 20 hrs by two-fold serial dilution technique; assay type: functional; conditions: isolate 3506, 20 h
Staphylococcus aureus [4] = test: Antimicrobial activity against methicillin-resistant Staphylococcus aureus clinical isolate 3167 after 20 hrs by two-fold serial dilution technique; assay type: functional; conditions: isolate 3167, 20 h
Candida albicans = test: Antimicrobial activity against Candida albicans 7535 after 20 hrs by two-fold serial dilution technique; assay type: functional; conditions: Candida albicans, 7535, 20 h
Salmonella typhimurium [5] = test: Antimicrobial activity against Salmonella typhimurium 1926 after 20 hrs by two-fold serial dilution technique; assay type: functional, Salmonella enterica subsp. enterica serovar Typhimurium; conditions: Salmonella enterica, 1926, 20 h
Salmonella typhimurium [6] = test: Antimicrobial activity against Salmonella typhimurium 2421 after 20 hrs by two-fold serial dilution technique; assay type: functional, Salmonella enterica subsp. enterica serovar Typhimurium; conditions: Salmonella enterica, 2421, 20 h
Pseudomonas aeruginosa [7] = test: Antimicrobial activity against Pseudomonas aeruginosa 2004 after 20 hrs by two-fold serial dilution technique; assay type: functional; conditions: Pseudomonas aeruginosa, 2004, 20 h
Pseudomonas aeruginosa [8] = test: Antimicrobial activity against Pseudomonas aeruginosa 2742 after 20 hrs by two-fold serial dilution technique; assay type: functional; conditions: Pseudomonas aeruginosa, 2742, 20 h
Escherichia coli [9] = test: Antimicrobial activity against Escherichia coli CCARM 1356 after 20 hrs by two-fold serial dilution technique; assay type: functional; conditions: CCARM 1356, 20 h
Escherichia coli [10] = test: Antimicrobial activity against Escherichia coli KCTC 1924 after 20 hrs by two-fold serial dilution technique; assay type: functional; conditions: KCTC 1924, 20 h
Streptococcus mutans = test: Antimicrobial activity against Streptococcus mutans 3065 after 20 hrs by two-fold serial dilution technique; assay type: functional; conditions: Streptococcus mutans, 3065, 20 h
Staphylococcus aureus [11] = test: Antimicrobial activity against Staphylococcus aureus 503 after 20 hrs by two-fold serial dilution technique; assay type: functional; conditions: Staphylococcus aureus, 503, 20 h
Staphylococcus aureus [12] = test: Antimicrobial activity against Staphylococcus aureus 209 after 20 hrs by two-fold serial dilution technique; assay type: functional; conditions: Staphylococcus aureus, 209, 20 h
Staphylococcus aureus [13] = test: Antimicrobial activity against Staphylococcus aureus RN4220 after 20 hrs by two-fold serial dilution technique; assay type: functional; conditions: RN4220, 20 h

Measured: MIC

O=C1CSC(=S)N1[C@@H](Cc1ccccc1)c1nnc(-c2ccccc2)o1
16 µg/mL: Staphylococcus aureus [1] | Staphylococcus aureus [2] | Staphylococcus aureus [3] | Staphylococcus aureus [4] | Staphylococcus aureus [13]
8 µg/mL: Streptococcus mutans
> 64 µg/mL: Candida albicans | Staphylococcus aureus [11] | Staphylococcus aureus [12]
> 128 µg/mL: all other assays above

Cc1cccc(-c2nnc([C@H](Cc3ccccc3)N3C(=O)/C(=C/c4ccc(C(=O)O)cc4)SC3=S)o2)c1
4 µg/mL: Staphylococcus aureus [1] | Staphylococcus aureus [3] | Streptococcus mutans
> 64 µg/mL: Candida albicans | Staphylococcus aureus [11] | Staphylococcus aureus [12]
2 µg/mL: Staphylococcus aureus [2] | Staphylococcus aureus [4] | Staphylococcus aureus [13]
> 128 µg/mL: all other assays above

O=C(O)c1ccc(/C=C2\SC(=S)N([C@@H](Cc3ccccc3)c3nnc(-c4cccc(Cl)c4)o3)C2=O)cc1
2 µg/mL: Staphylococcus aureus [2] | Staphylococcus aureus [4] | Streptococcus mutans | Staphylococcus aureus [13]
4 µg/mL: Staphylococcus aureus [1] | Staphylococcus aureus [3]
> 64 µg/mL: Candida albicans | Staphylococcus aureus [11] | Staphylococcus aureus [12]
> 128 µg/mL: all other assays above

O=C(O)c1ccc(/C=C2\SC(=S)N([C@@H](Cc3ccccc3)c3nnc(-c4cccc(Br)c4)o3)C2=O)cc1
2 µg/mL: Staphylococcus aureus [1] | Staphylococcus aureus [2] | Staphylococcus aureus [13]
> 64 µg/mL: Candida albicans | Staphylococcus aureus [11] | Staphylococcus aureus [12]
1 µg/mL: Staphylococcus aureus [3] | Staphylococcus aureus [4] | Streptococcus mutans
> 128 µg/mL: all other assays above

O=C1CSC(=S)N1Cc1nnc(-c2cccc(Br)c2)o1
16 µg/mL: Staphylococcus aureus [4] | Escherichia coli [10] | Streptococcus mutans | Staphylococcus aureus [12]
128 µg/mL: Salmonella typhimurium [6]
> 128 µg/mL: Pseudomonas aeruginosa [7] | Pseudomonas aeruginosa [8] | Escherichia coli [9]
32 µg/mL: all other assays above

Cc1ccc(-c2nnc(CN3C(=O)CSC3=S)o2)cc1
128 µg/mL: Salmonella typhimurium [6]
> 128 µg/mL: Pseudomonas aeruginosa [7] | Pseudomonas aeruginosa [8] | Escherichia coli [9]
64 µg/mL: all other assays above

O=C1CSC(=S)N1Cc1nnc(-c2ccc(Cl)cc2)o1
16 µg/mL: Escherichia coli [10] | Streptococcus mutans
64 µg/mL: Staphylococcus aureus [1] | Staphylococcus aureus [2] | Staphylococcus aureus [11]
> 128 µg/mL: Pseudomonas aeruginosa [7] | Pseudomonas aeruginosa [8] | Escherichia coli [9]
128 µg/mL: Salmonella typhimurium [6]
32 µg/mL: all other assays above

O=C1CSC(=S)N1Cc1nnc(-c2ccc(Br)cc2)o1
128 µg/mL: Salmonella typhimurium [6]
16 µg/mL: Streptococcus mutans
> 128 µg/mL: Pseudomonas aeruginosa [7] | Pseudomonas aeruginosa [8] | Escherichia coli [9]
64 µg/mL: all other assays above

Cc1ccccc1-c1nnc(CN2C(=O)CSC2=S)o1
16 µg/mL: Escherichia coli [10] | Streptococcus mutans | Staphylococcus aureus [12]
128 µg/mL: Salmonella typhimurium [6]
32 µg/mL: Staphylococcus aureus [2] | Staphylococcus aureus [4] | Salmonella typhimurium [5] | Staphylococcus aureus [13]
> 128 µg/mL: Pseudomonas aeruginosa [7] | Pseudomonas aeruginosa [8] | Escherichia coli [9]
64 µg/mL: all other assays above

O=C1CSC(=S)N1Cc1nnc(-c2ccccc2Cl)o1
64 µg/mL: Candida albicans | Salmonella typhimurium [6]
> 128 µg/mL: Pseudomonas aeruginosa [7] | Pseudomonas aeruginosa [8] | Escherichia coli [9]
16 µg/mL: Escherichia coli [10] | Streptococcus mutans | Staphylococcus aureus [12]
32 µg/mL: all other assays above

O=C1CSC(=S)N1Cc1nnc(-c2ccccc2Br)o1
64 µg/mL: Candida albicans | Salmonella typhimurium [5] | Staphylococcus aureus [11]
128 µg/mL: Salmonella typhimurium [6]
> 128 µg/mL: Pseudomonas aeruginosa [7] | Pseudomonas aeruginosa [8] | Escherichia coli [9]
16 µg/mL: Staphylococcus aureus [4] | Escherichia coli [10] | Streptococcus mutans | Staphylococcus aureus [12]
32 µg/mL: all other assays above

O=C1CSC(=S)N1Cc1nnc(-c2ccccc2F)o1
16 µg/mL: Staphylococcus aureus [12]
32 µg/mL: Escherichia coli [10] | Streptococcus mutans
> 128 µg/mL: Pseudomonas aeruginosa [7] | Pseudomonas aeruginosa [8] | Escherichia coli [9]
64 µg/mL: all other assays above

O=C1CSC(=S)N1Cc1nnc(-c2ccccc2)o1
> 128 µg/mL: Pseudomonas aeruginosa [7] | Pseudomonas aeruginosa [8] | Escherichia coli [9]
128 µg/mL: Salmonella typhimurium [6]
32 µg/mL: Staphylococcus aureus [12]
64 µg/mL: all other assays above

Cc1cccc(-c2nnc(CN3C(=O)/C(=C/c4ccc(C(=O)O)cc4)SC3=S)o2)c1
16 µg/mL: Streptococcus mutans | Staphylococcus aureus [13]
> 128 µg/mL: Salmonella typhimurium [5] | Salmonella typhimurium [6] | Pseudomonas aeruginosa [7] | Pseudomonas aeruginosa [8] | Escherichia coli [9] | Escherichia coli [10]
> 64 µg/mL: Candida albicans
32 µg/mL: all other assays above

O=C(O)c1ccc(/C=C2\SC(=S)N(Cc3nnc(-c4cccc(Cl)c4)o3)C2=O)cc1
> 64 µg/mL: Candida albicans
16 µg/mL: Staphylococcus aureus [1] | Staphylococcus aureus [2] | Streptococcus mutans | Staphylococcus aureus [11] | Staphylococcus aureus [12]
32 µg/mL: Staphylococcus aureus [3]
8 µg/mL: Staphylococcus aureus [4] | Staphylococcus aureus [13]
> 128 µg/mL: all other assays above

O=C(O)c1ccc(/C=C2\SC(=S)N(Cc3nnc(-c4cccc(Br)c4)o3)C2=O)cc1
8 µg/mL: Staphylococcus aureus [4]
> 64 µg/mL: Candida albicans
> 128 µg/mL: Salmonella typhimurium [5] | Salmonella typhimurium [6] | Pseudomonas aeruginosa [7] | Pseudomonas aeruginosa [8] | Escherichia coli [9] | Escherichia coli [10]
16 µg/mL: all other assays above

Cc1cccc(-c2nnc([C@H](Cc3ccccc3)N3C(=O)CSC3=S)o2)c1
> 64 µg/mL: Candida albicans | Staphylococcus aureus [11] | Staphylococcus aureus [12]
8 µg/mL: Staphylococcus aureus [1] | Staphylococcus aureus [2] | Staphylococcus aureus [3] | Staphylococcus aureus [4] | Staphylococcus aureus [13]
4 µg/mL: Streptococcus mutans
> 128 µg/mL: all other assays above

O=C1CSC(=S)N1[C@@H](Cc1ccccc1)c1nnc(-c2cccc(Cl)c2)o1
8 µg/mL: Staphylococcus aureus [1] | Staphylococcus aureus [2] | Staphylococcus aureus [3] | Staphylococcus aureus [13]
> 64 µg/mL: Candida albicans | Staphylococcus aureus [11] | Staphylococcus aureus [12]
4 µg/mL: Staphylococcus aureus [4] | Streptococcus mutans
> 128 µg/mL: all other assays above

O=C1CSC(=S)N1[C@@H](Cc1ccccc1)c1nnc(-c2cccc(Br)c2)o1
> 64 µg/mL: Candida albicans | Staphylococcus aureus [11] | Staphylococcus aureus [12]
2 µg/mL: Staphylococcus aureus [2] | Staphylococcus aureus [4] | Streptococcus mutans
4 µg/mL: Staphylococcus aureus [1] | Staphylococcus aureus [3] | Staphylococcus aureus [13]
> 128 µg/mL: all other assays above

COc1c(N2C[C@@H]3CCCN[C@@H]3C2)c(F)cc2c(=O)c(C(=O)O)cn(C3CC3)c12 [MOXIFLOXACIN]
0.25 µg/mL: Streptococcus mutans | Staphylococcus aureus [13]
0.5 µg/mL: Candida albicans | Salmonella typhimurium [6]
2 µg/mL: Pseudomonas aeruginosa [7] | Staphylococcus aureus [11]
1 µg/mL: Salmonella typhimurium [5]
128 µg/mL: Escherichia coli [9]

CCn1cc(C(=O)O)c(=O)c2cc(F)c(N3CCNCC3)cc21 [NORFLOXACIN]
4 µg/mL: Staphylococcus aureus [3]
> 64 µg/mL: Staphylococcus aureus [1] | Staphylococcus aureus [2]
8 µg/mL: Staphylococcus aureus [4]

Cc1onc(-c2ccccc2)c1C(=O)N[C@@H]1C(=O)N2[C@@H]1SC(C)(C)[C@@H]2C(=O)O [OXACILLIN]
> 64 µg/mL: Staphylococcus aureus [3] | Staphylococcus aureus [4]
1 µg/mL: Staphylococcus aureus [1] | Staphylococcus aureus [2]
